According to US20250354192A1, “METHODS FOR QUANTIFYING LIVE BACTERIA” (priority 2022, published 2025):

Tests used:
[1] = tested on: Salmonella enterica (ATCC 12023), Klebsiella pneumoniae (ATCC 13882), Citrobacter freundii (ATCC 8090), and E. coli (ATCC 35421); conditions: ethanol 25%, N=3
Procedure: (§1) Experimental Detail: A single colony of each indicated bacteria was inoculated into BHI and incubated overnight at 37° C. On the next day, the cells were diluted into fresh BHI and incubated for 2 h at 37° C. followed by an additional 90-minute incubation in the presence or absence of 1 mM EDA, where indicated. Where indicated, an aliquot of each culture was mixed with 96% ethanol to a final concentration of 70% (A, B) or 25% (C) and incubated for 5 to 10 min at room temperature. Cultures not exposed to ethanol were incubated for an equal amount of time in 1×PBS. Cells were pelleted by centrifugation for 10 min at 10,000 g, and supernatant containing excess EDA and ethanol was discarded. Cells were then resuspended in 300 μL of 1×PBS and pelleted again by centrifugation (10 min at 10,000 g). The 3rd step was carried out by resuspending cell pellets in 0.25 mL of 1×PBS solution containing 200 μM copper sulfate (II) (MilliporeSigma, Burlington, MA), 128 μM THPTA ligand (Lumiprobe, Hunt Valley, MD), 2.5 mM Ascorbic acid (MilliporeSigma, Burlington, MA), 25 μM CF488 picolyl azide fluorescent dye (Biotium, Fremont, CA), and 5% DMSO (Thermo Fisher Scientific, Waltham, MA). After a 30-minute incubation at room temperature, 500 μL of 1×PBS was added to each reaction, and cells were harvested by centrifugation (10 min at 10,000 g). Supernatant containing excess dye and reaction components was discarded, cells were washed with 500 μL of 1×PBS, and the cells were pelleted again by centrifugation. Finally, each cell pellet was resuspended in 0.3 mL of 1×PBS and mixed with an equal volume of ferrofluid. All samples were run on PIPER, and cell counts were generated by image analysis using an automated bacterial image recognition algorithm.

[2] = tested on: E. coli (ATCC 35421); conditions: 5 or 10 minutes with ethanol; cells grown in the presence of EDA
Procedure: as §1

[3] = tested on: B. cereus (ATCC 33019); conditions: ethanol 70%, 5 to 10 min at room temperature
Procedure: as §1

[4] = tested on: Bacillus, Enterococcus, Listeria, Salmonella, and Klebsiella; experiment: NADA-Green labeling of live versus heat-killed bacteria, PIPER non-capture assay; type: cell-based; conditions: 1 mM, 60 minutes; live log phase or heat-killed 15 minutes at 70° C.
Procedure: Accordingly, as shown in FIG. 2A-E, NADA-Green labels live bacteria and illustrates five (5) different strains (Bacillus, Enterococcus, Listeria, Salmonella, and Klebsiella) of log phase bacteria growing at 37° C. in brain heart infusion (BHI) media or heat-killed for 15 minutes at 70° C. were incubated with or without the fluorescent D-amino acid, NADA-Green at 1 mM (Bio-Techne, Minneapolis, MN) for 60 minutes. Cells were pelleted to remove the excess dye and resuspended in 1X phosphate buffered saline (PBS). Each sample was then split into two tubes. To one of the tubes, SYBR Green (ThermoFisher Scientific, Waltham, Massachusetts) was added in 1:100 dilution. All samples were processed on Ancera Inc.'s PIPER™ platform (“PIPER”) in a non-capture assay and analyzed by a bacterial image recognition algorithm to determine labeled cell counts. […] SYBR labeling confirmed that the dead cells remained intact on the instrument.

[5] = tested on: eight (8) different strains of log phase bacteria; experiment: Quantification of cells labeled with NADA-Green in eight strains, PIPER image recognition algorithm; type: cell-based; conditions: 1 mM, 60 minutes
Excerpt: FIG. 5A depicts the quantification of cells labeled with NADA-Green in eight (8) different strains of log phase bacteria. FIG. 5B depicts the quantification of cell labelling efficiency by NADA-Green in eight (8) different strains of log phase bacteria (SE—Salmonella enterica; EC—Escherichia coli; KP—Klebsiella pneumoniae; CF—Citrobacter freundii; SA—Staphylococcus aureus; BC—Bacillus cereus; LM—Listeria monocytogenes; PA—Pseudomonas aeruginosa), determined as a percentage of NADA-labelled PIPER cell counts to the SYBR-labelled PIPER cell counts. Cells growing at 37° C. in BHI media were incubated with 1 mM NADA-Green (Bio-Techne, Minneapolis, MN) for 60 minutes. Cells were pelleted by centrifugation (10 min 10,000 g) to remove the excess dye, resuspended in 1×PBS, mixed with ferrofluid, and processed on PIPER in a non-capture assay. An automated bacterial image recognition algorithm determined labeled cell counts.

[6] = tested on: Salmonella Typhimuirum; experiment: Time course of labeling with NADA-Green, PIPER cartridge coated with Salmonella-specific antibody; type: cell-based; conditions: 1 mM, 30 minutes or 90 minutes, 37° C. in BHI
Procedure: Cells were pelleted by centrifugation (10 min 10,000 g) to remove the excess dye, resuspended in 1×PBS, mixed with ferrofluid, and processed on PIPER using a cartridge having areas coated with a Salmonella-specific antibody.

[7] = tested on: Salmonella Typhimurium, Staphylococcus aureus, or a mixture of the two strains; experiment: Labeling of a mixed culture with NADA-Green, PIPER non-capture assay; type: cell-based; conditions: 1 mM, 60 minutes, 37° C.
Procedure: Even with efficient uptake of the D-amino acid analog, gram-negative bacteria may not stain as brightly as gram-positive bacteria because gram-negative bacteria have a much thinner peptidoglycan layer. […] For example, FIGS. 12A-B depict labeling of a mixed culture with NADA-Green. A log phase culture of Salmonella Typhimurium, Staphylococcus aureus, or a mixture of the two strains was incubated at 37° C. with 1 mM NADA-Green Bio-Techne, Minneapolis, MN) for 60 minutes. Cells were pelleted by centrifugation (10 min 10,000 g) to remove the excess dye, resuspended in 1×PBS, mixed with ferrofluid, and processed on PIPER in a non-capture assay. […] Salmonella cells appear smaller and dimmer in the image than Staph. aureus cells.

[8] = tested on: gram-positive and gram-negative bacteria; experiment: Labeling of gram-positive and gram-negative bacteria with NADA-Green, PIPER non-capture assay; type: cell-based, five (5) different strains of log phase bacteria; conditions: 1 mM, 90 minutes
Procedure: FIG. 4 depicts the labeling of gram-positive and gram-negative bacteria with NADA-Green with the five (5) different strains of log phase bacteria (see FIGS. 2A-E) growing at 37° C. in BHI media, and then incubated with 1 mM NADA-Green (Bio-Techne, Minneapolis, MN) for 90 minutes. Cells were pelleted by centrifugation (10 min 10,000 g) to remove the excess dye, resuspended in 1×PBS, mixed with ferrofluid, and processed on PIPER in a non-capture assay.

[9] = tested on: E. coli; experiment: Cell doubling control with DL-serine hydroxamate, OD600 and EDA click labeling on PIPER; type: cell-based
Procedure: E. coli was grown overnight at 37° C. The next day, cells were diluted into fresh media and grown for 2 hours. Next, +/−DL-serine hydroxamate (SHX; 1 mg/ml) and EDA (1 mM) were added. OD600 was taken every 20 min for 90 min. Aliquots of cells at the last time point were pelleted by centrifugation (10 min 10,000 g), and supernatant was discarded. Bacteria were washed with 1 mL of 1× PBS, pelleted by centrifugation (10 min 10,000 g), and supernatant was discarded. Cell pellets were resuspended in click reaction solution containing 200 μM copper sulfate (II) (MilliporeSigma, Burlington, MA), 128 μM THPTA ligand (Lumiprobe, Hunt Valley, MD), 2.5 mM Ascorbic acid (MilliporeSigma, Burlington, MA), 25 μM CF488 picolyl azide fluorescent dye (Biotium, Fremont, CA) and incubated for 30 min at room temperature. Cells were pelleted by centrifugation (10 min 10,000 g), supernatant was discarded, and pellets were resuspended 1 mL of 1× PBS. Finally, pellets were resuspended in PBS, mixed with ferrofluid and processed in the non-capture assay on PIPER. An automated bacterial image recognition algorithm determined labeled cell counts.

[10] = tested on: Klebsiella pneumoniae (KP); experiment: APC petrifilm counts before and after 90 minutes incubation with or without chloramphenicol; type: cell-based; conditions: 5 μg/mL, 37° C. for 90 minutes
Procedure: (§2) Eight (8) different species of bacteria (Salmonella enterica, E. coli, Klebsiella pneumoniae, Citrobacter freundii, Staphylococcus aureus, Bacillus cereus, Listeria monocytogenes and Pseudomonas aeruginosa) were propagated from frozen stocks onto TSA plates and incubated at 37° C. for 24 hours. To induce cold-stress, a loopful of cells from each plate was transferred into 3 mL of Butterfield's Phosphate Buffer, vortexed to suspend the cells, and placed at 4° C. for 1 day. The following day, cells from each culture were pelleted for 10 minutes at 10,000 g and resuspended in BHI (FIG. 19A) or BHI containing 5 μg/mL of chloramphenicol (FIG. 19B). Each culture was normalized to an absorbance value at 600 nm (OD600) of 0.05 and loaded in triplicate onto a sterile microplate at 0.2 mL per well. The microplate was covered with BreatheEasy film and bacterial growth was monitored using a SpectroStar Nano spectrophotometer (BMG Labtech, Cary, NC) for 24 hours. During growth, the temperature was maintained at 37° C. and the plate was automatically shaken prior to OD600 readings every 10 minutes. […] A cold-stressed Klebsiella pneumoniae (KP) culture prepared as described above was transferred into BHI or BHI containing 5 μg/mL of chloramphenicol and either plated immediately or placed at 37° C. for 90 minutes. […]

[11] = tested on: Klebsiella pneumoniae (KP); experiment: 3-step metabolic labeling with EDA with or without chloramphenicol, detection on PIPER; type: cell-based; conditions: 5 μg/mL, 1 mM EDA, 37° C. for 90 min
Procedure: as §2

[12] = tested on: Eight (8) different species of bacteria; experiment: Bacterial growth (OD600) of cold-stressed cultures in BHI with or without chloramphenicol; type: cell-based; conditions: 5 μg/mL in BHI, 37° C., 2-hour observation window
Procedure: Eight (8) different species of bacteria (Salmonella enterica, E. coli, Klebsiella pneumoniae, Citrobacter freundii, Staphylococcus aureus, Bacillus cereus, Listeria monocytogenes and Pseudomonas aeruginosa) were propagated from frozen stocks onto TSA plates and incubated at 37° C. for 24 hours. To induce cold-stress, a loopful of cells from each plate was transferred into 3 mL of Butterfield's Phosphate Buffer, vortexed to suspend the cells, and placed at 4° C. for 1 day. The following day, cells from each culture were pelleted for 10 minutes at 10,000 g and resuspended in BHI (FIG. 19A) or BHI containing 5 μg/mL of chloramphenicol (FIG. 19B). Each culture was normalized to an absorbance value at 600 nm (OD600) of 0.05 and loaded in triplicate onto a sterile microplate at 0.2 mL per well. The microplate was covered with BreatheEasy film and bacterial growth was monitored using a SpectroStar Nano spectrophotometer (BMG Labtech, Cary, NC) for 24 hours. During growth, the temperature was maintained at 37° C. and the plate was automatically shaken prior to OD600 readings every 10 minutes. […] OD600 observations were validated using the “gold-standard” petrifilm counts (3M) (FIG. 19C). […]

Compound: CCO [ethanol]
- cell counts, cell mean intensity and variability across technical replicates [1]: improved cell counts and/or cell mean intensity and reduced the variability across technical replicates
- detection after ethanol incubation prior to the click reaction [2]: dramatically improved detection
- CuAAC labeling with or without ethanol treatment [3]: occurred efficiently both with or without ethanol treatment

Compound: N[C@H](CNc1ccc([N+](=O)[O-])c2nonc12)C(=O)O [NADA-Green]
- labeled cell counts above background noise, live versus heat-killed cells [4]: Only live cells labeled with NADA-Green were counted above background noise
- detection of labeled strains by the image recognition algorithm [5]: All labeled strains except Pseudomonas were detected
- interference with cell growth or capture by the antibody [6]: does not interfere with cell growth or capture by the antibody
- PIPER counts in mixed culture versus individual cultures [7]: counts in the mixed culture are approximately additive of the counts for each individual culture
- labeling of bacteria [8]: labels both gram-positive and gram-negative bacteria

Compound: NC(CO)C(=O)NO (racemic) [DL-Serine hydroxamate, DL-serine hydroxamate]
- labeling with EDA and click reaction in the presence of the agent ([9]; 1 mg/ml SHX, 1 mM EDA): does not prevent labeling
- doubling of fast-growing cells (OD600) ([9]; 1 mg/ml, OD600 every 20 min for 90 min): slows doubling of fast-growing cells

Compound: O=C(N[C@H](CO)[C@H](O)c1ccc([N+](=O)[O-])cc1)C(Cl)Cl [chloramphenicol]
- cell doubling by APC petrifilm counts [10]: prevented cell doubling
- PIPER cell counts versus sample without chloramphenicol [11]: slight decrease in cell counts
- interference with 3-step metabolic labeling and detection on PIPER [11]: did not interfere with 3-step metabolic labeling and detection on PIPER
- doubling (OD600) [12]: prevented doubling in all 8 strains
